This is an account of results in patent US10292958B2, “Lipid-containing compositions and methods of use thereof” (ASHA NUTRITION SCIENCES, INC., priority 2008, dated 2019).

The conditions of data set [1]: cited from earlier work; for effect on blood cholesterol: saturated fats of chain-length 12, 14 and 16.
The subject of data set [2] is ovulation. The data set is described as follows: Case study on ovulation, reproductive disorders. The settings on record: person. The format is in vivo, human. From the text: In a host subject cessation of ovulation (as indicated by watery pale menstrual cycles), intense ovulation-related pains and anovulatry menstruation at extremely low omega-6 fatty acids in diet were observed; olive oil being the main fat source. It is hypothesized herein that this was due to deficiency of omega-6 derived prostaglandins, which aid ovulation.

The subject of data set [3] is inflammation, immunity, infection. Particulars: menopausal person; 11 g LA; ALA reduced from 1.8 g to 1.2 g.

As for `CCCCCCCCCCCCCCCC(=O)O` [palmitic acid], the “effect on blood cholesterol” value in data set [1] is listed as “elevate blood cholesterol”.
`CC(C)Cc1ccc(C(C)C(=O)O)cc1` (stereo not shown) [Advil]: the “cessation of ovulation, ovulation-related pains, anovulatory menstruation” value in data set [2] was “same phenomenon was observed”.
In the case of `CCCCCCCCCCCCCC(=O)O` [myristic acid], the “effect on blood cholesterol” value in data set [1] was “elevate blood cholesterol”.
Take `CCCCCCCCCCCC(=O)O` [lauric acid]: the “effect on blood cholesterol” value in data set [1] is “elevate blood cholesterol”.
For `CCCCCCCCCCCCCCCCCC(=O)O` [Stearic acid], the lowering of cholesterol in data set [1] (in vivo) is 21%.
`CCCCCCCC/C=C\CCCCCCCC(=O)O` [oleic acid]: the “lowering of LDL” value in data set [1] (in vivo) is 15%.
`CC/C=C\C/C=C\C/C=C\CCCCCCCC(=O)O` [ALA, Alpha-linolenic Acid]: the “symptoms (spinal burning sensation, heat in the body, delayed wound healing, vaginal yeast infection)” value in data set [3] is recorded as “disappeared”.
